From patent publication US9217743B2, “Screening method utilizing thalidomide-targeting factor” (Tokyo Institute of Technology, priority 2009, dated 2015)
“Also recorded” adds a separate entry of the source.

Tests used:
[1] = system: zebrafish embryos; assay: Zebrafish embryo development, pectoral fins and otic vesicles; type: in vivo, zebrafish (Danio rerio)
Text: To elucidate possible effects of thalidomide on zebrafish development, dechorionated embryos were transferred to media containing various concentrations of thalidomide. […] More specifically, formation of the endoskeletal disc of the pectoral fin was inhibited at 75 hpf (FIG. 4A), and the size of otic vesicles at 30 hpf was reduced (FIG. 4B). Retardation of pectoral fin development was also detected at 48-hpf embryos (FIGS. 5C and D). Recent studies have reported that development of pectoral fins and otic vesicles in teleosts (including zebrafish) shares common molecular mechanisms with the limb and ear development in tetrapods (Cited Literatures 24 to 26).
Thalidomide was dissolved in DMSO and added to a final concentration of 400 μM to E3 medium prewarmed to […]. Zebrafish embryos were dechorionated prior to thalidomide as follows: At 2 hpf, the embryos were incubated in E3 medium containing 2 mg/ml Protease type XIV (Sigma) for three minutes and then washed five times with the medium. After dechorionation, embryos were immediately transferred to E3 medium containing thalidomide, and observed for three days. The thalidomide-containing medium was exchanged every 12 hours.
Extracellular matrices associated with chondrocytes were stained with Alcian blue (Cited Literature 40). Zebrafish embryos were fixed in 3.7% neutral buffered formaldehyde for overnight. The next day, the embryos were washed with 100% ethanol and rehydrated with PBS. Subsequently, the embryos were incubated with a solution of 0.05% trypsin in saturated sodium tetraborate for one to three hours. Pigmentation of fish was removed by 3% hydrogen peroxide/1% potassium hydroxide solution. Stained embryos were stored in 70% glycerol-containing PBS solution.
Microinjection into one-cell stage embryos was carried out in accordance with Cited Literature 39. The present inventors used a nitrogen gas-pressure microinjector (IM 300, Narishige Co., Ltd.) for injection. Capped mRNAs were prepared in vitro using the mMESSAGE mMACHINE in vitro transcription kit (Ambion).
Zebrafish embryos at 48 hpf were anesthetized with 1% methylcellulose and 0.003% 3-amino benzoic acid ethyl ester (Sigma) and mounted on a slide glass. Then, otic vesicles of ten embryos randomly selected from each sample were photographed. The size was measured using the NIH image J software and compared to that of control. Average sizes and standard errors were calculated, and p-values were determined by the Mann-Whitney U test.

[2] = target: T1, zCrbn (Danio rerio, UniProt Q68EH9, D160E); assay: Binding of FH-zCrbn from 293T extracts to thalidomide beads; parameters: species or system zebrafish; settings: FH-zCrbn in 293T extract
T1 construct: expressed in transfected cells; host or cells: 293T (stably expressing FH-zCrbn)
T1 sequence (Q68EH9 1-431 D160E): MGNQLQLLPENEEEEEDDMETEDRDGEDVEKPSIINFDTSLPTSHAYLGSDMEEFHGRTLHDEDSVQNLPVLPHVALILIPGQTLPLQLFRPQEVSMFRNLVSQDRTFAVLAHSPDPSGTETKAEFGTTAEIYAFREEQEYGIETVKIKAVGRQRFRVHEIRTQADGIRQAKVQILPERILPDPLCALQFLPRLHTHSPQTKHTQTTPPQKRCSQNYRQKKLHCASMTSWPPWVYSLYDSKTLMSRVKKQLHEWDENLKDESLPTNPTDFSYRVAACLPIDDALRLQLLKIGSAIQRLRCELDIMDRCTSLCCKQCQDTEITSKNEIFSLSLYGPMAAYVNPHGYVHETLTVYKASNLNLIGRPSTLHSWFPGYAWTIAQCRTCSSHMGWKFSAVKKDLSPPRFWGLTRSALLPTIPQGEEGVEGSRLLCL
Protocol: FIG. 14 relates to biochemical analysis results of zCrbn. […] Bound proteins were eluted by thalidomide, and eluate were analyzed by western blotting. zCrbn bound to thalidomide. (B) Lysate from 293T cells overexpressing FH-zCrbn was immunoprecipitated with anti-FLAG antibody, and DDB1 was detected by western blotting. […] (C) Lysate from FLAG-zCrbn (wild type) or FLAG-zCrbn YW/AA overexpressed in 293T cells was mixed with thalidomide beads. For quantification, various amounts of input and eluate fraction were analyzed by western blotting.

[3] = target: T2, CRBN YW/AA (Y384A/W386A) (Homo sapiens, UniProt Q96SW2, W386A/Y384A); assay: Binding of CRBN double mutant from 293T extracts to thalidomide-immobilized beads
T2 construct: expressed in transfected cells; host or cells: 293T
T2 sequence (Q96SW2 whole entry Y384A/W386A): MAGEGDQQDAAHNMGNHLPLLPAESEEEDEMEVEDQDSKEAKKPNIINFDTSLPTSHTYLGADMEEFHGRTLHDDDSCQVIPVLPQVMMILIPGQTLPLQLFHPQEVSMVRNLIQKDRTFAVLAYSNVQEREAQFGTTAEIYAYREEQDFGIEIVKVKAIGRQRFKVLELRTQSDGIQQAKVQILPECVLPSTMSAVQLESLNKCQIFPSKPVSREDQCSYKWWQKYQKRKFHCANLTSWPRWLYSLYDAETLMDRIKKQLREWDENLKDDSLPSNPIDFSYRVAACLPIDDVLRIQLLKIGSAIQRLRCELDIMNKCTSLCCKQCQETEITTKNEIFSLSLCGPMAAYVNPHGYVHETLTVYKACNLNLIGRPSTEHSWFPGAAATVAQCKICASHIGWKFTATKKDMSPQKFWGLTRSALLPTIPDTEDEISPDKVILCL
Text: First, thalidomide-binding region was investigated by using the N-terminal and C-terminal deletion mutants. […] The present inventors investigated whether this CRBN YW/AA functionally active in the cells. The subcellular localization of this mutant was indistinguishable from that of wild-type CRBN.
Recombinant CRBN-FLAG and DDB1-V5-His proteins were expressed in the insect Sf9 cells by using the Bac-to-bac baculovirus expression system (Invitrogen) and purified using anti-FLAG M2 agarose beads (Sigma) and Ni-NTA agarose beads (Qiagen), respectively. Purified CRBN-FLAG and/or DDB1-V5-His were mixed with thalidomide-immobilized beads, and the bound proteins were eluted with an SDS sample buffer. For analysis of CRBN-deletion mutant, GST-fused CRBN and its mutants were expressed in E. coli BL21 and purified using glutathione Sepharose (GE Healthcare). CRBN mutants were overexpressed in 293T cells by transfection using Lipofectamine 2000 (Invitrogen). Subsequent binding assays were carried out as described above.

[4] = target: T3, CRBN-containing E3 complex (Homo sapiens, UniProt Q96SW2); assay: Autoubiquitination in live cells, 293T cells stably expressing FH-CRBN; type: cell-based; settings: thalidomide 10, 30 and 100 μM, with MG132
T3 construct: expressed in transfected cells; host or cells: 293T stably expressing FH-CRBN
T3 sequence (Q96SW2 whole entry): as the sequence (Q96SW2 whole entry Y384A/W386A) above, with A384Y, A386W counted along it
T3 sequence (Q16531 2-1140 partner limits assumed): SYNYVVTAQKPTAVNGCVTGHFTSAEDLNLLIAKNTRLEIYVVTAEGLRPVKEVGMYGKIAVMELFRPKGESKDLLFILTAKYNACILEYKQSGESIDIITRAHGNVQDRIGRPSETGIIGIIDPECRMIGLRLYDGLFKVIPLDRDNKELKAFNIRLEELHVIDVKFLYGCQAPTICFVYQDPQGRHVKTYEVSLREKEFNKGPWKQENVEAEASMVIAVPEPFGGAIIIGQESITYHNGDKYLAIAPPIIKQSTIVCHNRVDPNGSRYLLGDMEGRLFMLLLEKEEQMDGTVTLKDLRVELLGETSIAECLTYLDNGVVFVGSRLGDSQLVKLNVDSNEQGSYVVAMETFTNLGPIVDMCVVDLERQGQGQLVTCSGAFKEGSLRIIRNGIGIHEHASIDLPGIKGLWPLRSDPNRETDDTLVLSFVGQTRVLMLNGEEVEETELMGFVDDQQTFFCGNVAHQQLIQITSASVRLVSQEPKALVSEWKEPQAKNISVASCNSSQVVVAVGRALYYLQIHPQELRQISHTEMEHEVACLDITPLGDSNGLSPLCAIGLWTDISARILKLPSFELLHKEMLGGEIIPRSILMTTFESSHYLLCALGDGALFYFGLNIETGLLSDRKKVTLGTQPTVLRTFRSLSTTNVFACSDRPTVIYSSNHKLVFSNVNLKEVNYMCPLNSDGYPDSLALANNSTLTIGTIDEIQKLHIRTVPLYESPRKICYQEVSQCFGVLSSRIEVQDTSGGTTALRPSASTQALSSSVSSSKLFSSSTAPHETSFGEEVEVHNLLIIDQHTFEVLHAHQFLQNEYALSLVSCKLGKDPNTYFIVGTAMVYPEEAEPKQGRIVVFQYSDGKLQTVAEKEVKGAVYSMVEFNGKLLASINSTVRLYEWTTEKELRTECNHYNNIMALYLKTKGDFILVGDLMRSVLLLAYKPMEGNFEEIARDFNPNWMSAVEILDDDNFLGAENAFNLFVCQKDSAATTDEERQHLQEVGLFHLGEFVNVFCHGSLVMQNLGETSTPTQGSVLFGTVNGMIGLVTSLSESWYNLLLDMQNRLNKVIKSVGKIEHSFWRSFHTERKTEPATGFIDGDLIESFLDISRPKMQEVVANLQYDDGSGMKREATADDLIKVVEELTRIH
T3 sequence (Q13619 whole entry partner): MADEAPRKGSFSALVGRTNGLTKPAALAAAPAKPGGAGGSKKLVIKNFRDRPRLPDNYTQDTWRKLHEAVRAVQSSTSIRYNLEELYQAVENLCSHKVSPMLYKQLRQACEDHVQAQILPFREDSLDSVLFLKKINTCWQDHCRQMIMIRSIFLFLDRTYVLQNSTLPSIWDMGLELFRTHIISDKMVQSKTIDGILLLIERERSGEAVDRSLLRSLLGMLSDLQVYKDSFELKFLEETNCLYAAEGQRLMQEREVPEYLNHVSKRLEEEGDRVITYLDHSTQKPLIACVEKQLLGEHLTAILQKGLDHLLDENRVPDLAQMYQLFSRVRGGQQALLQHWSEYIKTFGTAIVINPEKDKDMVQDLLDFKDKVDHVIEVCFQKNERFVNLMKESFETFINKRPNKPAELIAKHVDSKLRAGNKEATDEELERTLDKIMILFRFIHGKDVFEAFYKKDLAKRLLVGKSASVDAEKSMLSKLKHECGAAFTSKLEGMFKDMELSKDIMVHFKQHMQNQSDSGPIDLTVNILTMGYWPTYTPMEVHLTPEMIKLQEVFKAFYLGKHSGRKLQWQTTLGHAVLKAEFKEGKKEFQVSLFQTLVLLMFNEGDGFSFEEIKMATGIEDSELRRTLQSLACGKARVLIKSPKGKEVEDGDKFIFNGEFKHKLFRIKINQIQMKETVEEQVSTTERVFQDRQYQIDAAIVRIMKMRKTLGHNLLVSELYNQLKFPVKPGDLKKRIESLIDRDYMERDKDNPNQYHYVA
T3 sequence (P62877 2-108 partner limits assumed): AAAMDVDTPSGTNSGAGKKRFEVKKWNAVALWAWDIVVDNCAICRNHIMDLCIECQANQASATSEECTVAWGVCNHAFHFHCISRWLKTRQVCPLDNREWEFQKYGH
Protocol: The present inventors examined whether thalidomide would inhibit ubiquitination of the CRBN-containing E3 complex. 293T cells stably expressing FH-CRBN or FH-CRBN YW/AA were treated with MG132 and thalidomide (10, 30, and 100 μM) at similar concentration relative to the therapeutic doses used in human.
The assays were performed as described (Cited Literature 38). 293T cells stably expressing FH-CRBN or its mutant were treated with 10 μM MG132 or DMSO (vehicle) for three hours. The cells lysate were prepared using RIPA buffer containing 25 μM MG132 and 10 mM N-ethylmaleimide. FH-CRBN was immunoprecipitated and analyzed as described above. Various concentrations of thalidomide were added to cells one hour prior to MG132 treatment.

size of otic vesicles, of the control size ([1]; 400 μM thalidomide, uninjected embryos): 64.5% | size of otic vesicles ([1]; 30 hpf): reduced | formation of the endoskeletal disc of the pectoral fin ([1]; 75 hpf): inhibited | development of pectoral fins and otic vesicles ([1]; embryos in thalidomide-containing media from 2 hpf): disturbed | size of otic vesicles, of the control size ([1]; thalidomide, embryos overexpressing wild-type zCrbn): approximately 66% | size of otic vesicles ([1]; thalidomide, embryos overexpressing zCrbn YW/AA): did not affect | binding of zCrbn to thalidomide [2]: bound | thalidomide-binding activity of CRBN YW/AA [3]: extremely low
Structure (SMILES): O=C1CCC(N2C(=O)c3ccccc3C2=O)C(=O)N1 (stereo not drawn) [thalidomide]
autoubiquitination of wild-type CRBN [4]: potently inhibited; also recorded: suppressed
